Measurements: ChEMBL document CHEMBL4699483, “Synthesis of functionalized derivatives of the gamma-secretase modulator BMS-932481 and identification of its major metabolite” (Bioorg Med Chem Lett, 2020)
Each block holds one compound with its values, some of them ahead of it.

Experiments:
[1] = target: Gamma-secretase; assay: Modulation of gamma secretase (unknown origin) assessed as inhibition of amyloid beta (1 to 42 residues) production; format: protein-complex assay, Homo sapiens
[2] = Metabolic stability in rat liver microsomes assessed as parent compound remaining incubated for 30 mins; format: ADME, Microsome; conditions: read-out: Stabilty
[3] = Drug metabolism assessed as nitrile adduct formation in presence of KCN
[4] = Glutathione reactivity in liver microsomes assessed as GSH-adduct formation; format: ADME
[5] = Drug metabolism assessed as (5R,7S)-7-(4-fluorophenyl)-2-(3-methoxy-4-(3-methyl-1H-1,2,4-triazol-1-yl)phenylamino)-4-(methylamino)-6,7-dihydro-5H-cyclopenta[d]pyrimidin-5-ol metabolite formation by LC/MS analysis
[6] = Drug metabolism assessed as (S)-7-(4-fluorophenyl)-2-(3-methoxy-4-(3-methyl-1H-1,2,4-triazol-1-yl)phenylamino)-4-(methylamino)-6,7-dihydro-5H-cyclopenta[d]pyrimidin-5-one metabolite formation by LC/MS analysis
[7] = Metabolic stability in human liver microsomes assessed as parent compound remaining incubated for 30 mins; format: ADME, Microsome; conditions: read-out: Stabilty
[8] = Drug metabolism assessed as iminoquinone A formation
[9] = target: Cytochrome P450 3A4 (Homo sapiens, UniProt P08684); assay: Time-dependent inhibition of CYP3A4 in human liver microsomes assessed as inhibition constant by Kitz-Wilson plot analysis; format: ADME
Chain of Cytochrome P450 3A4 (P08684 whole entry): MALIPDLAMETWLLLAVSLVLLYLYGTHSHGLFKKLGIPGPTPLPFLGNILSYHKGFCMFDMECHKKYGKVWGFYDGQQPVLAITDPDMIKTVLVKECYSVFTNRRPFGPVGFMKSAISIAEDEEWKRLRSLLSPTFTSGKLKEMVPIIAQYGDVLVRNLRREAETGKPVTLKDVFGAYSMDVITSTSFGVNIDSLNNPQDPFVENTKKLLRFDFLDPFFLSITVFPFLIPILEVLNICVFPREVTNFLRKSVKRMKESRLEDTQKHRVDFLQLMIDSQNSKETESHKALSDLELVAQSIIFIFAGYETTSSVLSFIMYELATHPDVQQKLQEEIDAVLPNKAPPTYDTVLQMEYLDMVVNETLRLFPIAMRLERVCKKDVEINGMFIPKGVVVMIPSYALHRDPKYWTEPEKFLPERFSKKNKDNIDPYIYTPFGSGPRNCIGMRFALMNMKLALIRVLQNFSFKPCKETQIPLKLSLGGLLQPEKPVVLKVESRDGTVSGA

SMILES: CNc1nc(Nc2ccc(-n3cnc(C)n3)c(OC)c2)nc2c1/C(=N/O)C[C@H]2c1ccc(F)cc1
- IC50 [1]: 5 nM

SMILES: CNc1nc(Nc2ccc(-n3cnc(C)n3)c(OC)c2)nc2c1CC[C@@]2(O)c1ccc(F)cc1
- IC50 [1]: 2300 nM

SMILES: CNc1nc(Nc2ccc(-n3cnc(C)n3)c(OC)c2)nc2c1/C(=N/O)CC2c1ccc(F)cc1 (racemic)
- IC50 [1]: 10 nM

SMILES: CNc1nc(Nc2ccc(-n3cnc(C)n3)c(OC)c2)nc2c1CC[C@]2(O)c1ccc(F)cc1
- IC50 [1]: 96 nM

The next lines start with results.

- remaining at 0.5 h [2]: 89%
- Drug metabolism [4]: Not Active
- remaining at 0.5 h [7]: 94%
SMILES: CNc1nc(Nc2ccc(-n3cnc(C)n3)c(OC)c2)nc2c1CC[C@H]2c1ccc(F)cc1
- Drug metabolism [3]: Metabolite detected
- Drug metabolism [5]: Metabolite detected
- Drug metabolism [6]: Metabolite detected
- Drug metabolism [8]: Metabolite detected

- IC50 [1]: 17 nM
SMILES: CNc1nc(Nc2ccc(-n3cnc(C)n3)c(OC)c2)nc2c1[C@H](O)C[C@H]2c1ccc(F)cc1

- IC50 [1]: 14 nM
SMILES: CNc1nc(Nc2ccc(-n3cnc(C)n3)c(OC)c2)nc2c1C(=O)C[C@H]2c1ccc(F)cc1

- remaining at 0.5 h [2]: 89%
- Drug metabolism [4]: Not Active
- remaining at 0.5 h [7]: 94%
- Ki [9]: 82.5 µM
SMILES: CNc1nc(Nc2ccc(-n3cnc(C)n3)c(OC)c2)nc2c1CC[C@@H]2c1ccc(F)cc1
- Drug metabolism [3]: Metabolite detected
- Drug metabolism [5]: Metabolite detected
- Drug metabolism [6]: Metabolite detected
- Drug metabolism [8]: Metabolite detected

- IC50 [1]: 60 nM
SMILES: CNc1nc(Nc2ccc(-n3cnc(C)n3)c(OC)c2)nc2c1C(C)(O)CC2c1ccc(F)cc1 (racemic)
